The record followed here is ChEMBL document CHEMBL4007425, “Drug Repurposing of Histone Deacetylase Inhibitors That Alleviate Neutrophilic Inflammation in Acute Lung Injury and Idiopathic Pulmonary Fibrosis via Inhibiting Leukotriene A4 Hydrolase and Blocking LTB4 Biosynthesis” (J Med Chem, 2017).

Active and inactive are the calls of the source. The calls are words filed in the database; no cut-off is given here. Bounds are passed on as bounds.

By IC50 is commonly meant the concentration at which inhibition is half-maximal. A word on the inhibition: it is the drop in the measured response relative to a control, in per cent. Usually ΔTm stands for the shift of the melting midpoint relative to a reference.

The target in series [1] is T1, Leukotriene A-4 hydrolase (Homo sapiens, UniProt P09960).
T1 sequence (P09960 whole entry): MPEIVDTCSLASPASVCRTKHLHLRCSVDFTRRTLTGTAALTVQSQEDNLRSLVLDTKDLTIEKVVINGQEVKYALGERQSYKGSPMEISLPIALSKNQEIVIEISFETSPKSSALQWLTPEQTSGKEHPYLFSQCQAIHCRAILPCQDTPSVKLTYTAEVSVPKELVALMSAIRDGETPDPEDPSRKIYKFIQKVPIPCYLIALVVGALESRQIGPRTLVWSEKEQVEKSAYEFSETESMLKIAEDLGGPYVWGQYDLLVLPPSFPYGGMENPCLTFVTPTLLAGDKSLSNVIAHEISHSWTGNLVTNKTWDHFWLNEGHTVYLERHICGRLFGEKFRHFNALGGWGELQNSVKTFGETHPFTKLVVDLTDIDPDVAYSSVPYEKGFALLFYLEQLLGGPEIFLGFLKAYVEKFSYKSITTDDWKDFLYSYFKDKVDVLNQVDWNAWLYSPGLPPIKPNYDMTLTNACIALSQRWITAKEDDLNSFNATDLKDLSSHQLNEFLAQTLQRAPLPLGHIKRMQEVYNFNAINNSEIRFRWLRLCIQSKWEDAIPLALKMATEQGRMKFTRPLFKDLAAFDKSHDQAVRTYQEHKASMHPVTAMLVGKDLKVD
Put plainly: Inhibition of recombinant human LTA4H aminopeptidase activity expressed in Escherichia coli BL21 (DE3) pLysS assessed as formation of p-NA from Ala-p-NA preincubated for 10 mins followed by substrate addition measured after 10 mins. In kind it is ADME.

Series [2] concerns the target T2, Polyunsaturated fatty acid 5-lipoxygenase (Homo sapiens) (UniProt P09917).
T2 sequence (whole entry): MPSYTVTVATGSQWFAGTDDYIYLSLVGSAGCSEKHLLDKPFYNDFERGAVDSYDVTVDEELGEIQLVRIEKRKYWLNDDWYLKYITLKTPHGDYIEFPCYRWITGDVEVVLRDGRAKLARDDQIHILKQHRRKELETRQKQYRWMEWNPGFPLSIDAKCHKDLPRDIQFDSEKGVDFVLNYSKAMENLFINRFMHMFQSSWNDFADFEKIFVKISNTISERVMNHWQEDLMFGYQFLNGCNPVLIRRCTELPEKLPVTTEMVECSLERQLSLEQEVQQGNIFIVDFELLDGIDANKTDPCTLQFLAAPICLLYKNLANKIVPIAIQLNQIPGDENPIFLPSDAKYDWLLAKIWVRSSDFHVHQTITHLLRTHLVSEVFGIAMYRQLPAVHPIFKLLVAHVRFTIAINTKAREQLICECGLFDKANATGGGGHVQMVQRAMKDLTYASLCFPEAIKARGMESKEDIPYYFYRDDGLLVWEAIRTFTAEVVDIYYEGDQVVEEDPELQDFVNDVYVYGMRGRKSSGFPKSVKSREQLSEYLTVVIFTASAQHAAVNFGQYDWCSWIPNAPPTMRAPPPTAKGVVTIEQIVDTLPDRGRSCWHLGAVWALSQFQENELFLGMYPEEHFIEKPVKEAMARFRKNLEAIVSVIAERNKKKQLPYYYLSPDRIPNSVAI
In words: Inhibition of recombinant human N-terminal His-tagged 5-LOX expressed in Escherichia coli assessed as conversion of arachidonic acid to HpETEs measured for 300 secs by UV-visible spectrophotometric analysis.

For series [3], the target named is T3, Polyunsaturated fatty acid lipoxygenase ALOX15 (Homo sapiens) (UniProt P16050).
T3 sequence (whole entry): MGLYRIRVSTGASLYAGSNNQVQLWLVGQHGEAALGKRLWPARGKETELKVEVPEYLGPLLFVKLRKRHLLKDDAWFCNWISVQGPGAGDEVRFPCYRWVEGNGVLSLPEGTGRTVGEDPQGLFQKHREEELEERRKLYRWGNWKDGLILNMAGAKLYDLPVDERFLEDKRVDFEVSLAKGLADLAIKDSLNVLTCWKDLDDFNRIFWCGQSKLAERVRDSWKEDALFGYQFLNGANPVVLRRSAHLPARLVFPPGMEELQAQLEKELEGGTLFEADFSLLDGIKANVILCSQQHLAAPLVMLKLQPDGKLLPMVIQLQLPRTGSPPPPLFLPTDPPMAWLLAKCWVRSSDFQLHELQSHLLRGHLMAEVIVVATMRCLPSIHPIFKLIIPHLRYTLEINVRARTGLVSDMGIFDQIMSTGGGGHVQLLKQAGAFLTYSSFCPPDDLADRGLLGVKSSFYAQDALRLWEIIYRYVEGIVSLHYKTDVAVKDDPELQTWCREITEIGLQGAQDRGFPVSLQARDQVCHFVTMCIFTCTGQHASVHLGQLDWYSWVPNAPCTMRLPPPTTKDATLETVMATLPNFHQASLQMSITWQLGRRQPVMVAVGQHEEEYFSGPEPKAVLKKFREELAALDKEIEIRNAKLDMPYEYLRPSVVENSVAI
Put plainly: Inhibition of recombinant human N-terminal His-tagged 15-LOX-1 expressed in Escherichia coli using arachidonic acid as substrate measured every 2 min intervals for 20 mins by fluorescence analysis.

In series [4] the test system is Mus musculus. In words: Anti-inflammatory activity in LPS-induced C57BL/6 mouse model of acute lung injury assessed as reduction in protein concentration in BALF at 25 mg/kg, ip pretreated for 1 hr followed LPS challenge measured after 24 hrs. In kind it is functional, organism-based.
For series [5], the system named is Mus musculus. In words: Anti-inflammatory activity in LPS-induced C57BL/6 mouse model of acute lung injury assessed as reduction in pulmonary edema by measuring lung wet/dry ratio at 25 mg/kg, ip pretreated for 1 hr followed LPS challenge after 24 hrs […]. The series is classed as functional, organism-based.
Series [6] relates to Mus musculus. In words: Anti-inflammatory activity in BLM-induced C57BL/6 mouse model of acute lung neutrophilic inflammation assessed as reduction in number of neutrophils in BALF at 10 and 25 mg/kg, ip qd for 7 days post BLM challenge measured on day 7. The series is classed as functional, organism-based.
In series [7] the test system is Mus musculus. In words: Anti-inflammatory activity in BLM-induced C57BL/6 mouse model of acute lung injury assessed as reduction in IL-1beta mRNA level in BALF compound administered intraperitoneally once daily for 7 days post BLM challenge measured on day 7 by qRT-PCR method. The series is classed as functional. On the technique in general: Real-time PCR tracks product formation cycle by cycle.

Series [8] deals with Mus musculus. Put plainly: Anti-inflammatory activity in BLM-induced C57BL/6 mouse model of acute lung injury assessed as reduction in IL-6 mRNA level in BALF compound administered intraperitoneally once daily for 7 days post BLM challenge measured on day 7 by qRT-PCR method. The series is classed as functional.
Series [9] addresses T4, Leukotriene A-4 hydrolase (LTA4H) aminopeptidase activity (Homo sapiens, UniProt P09960).
T4 sequence (P09960 whole entry): T1 sequence (P09960 whole entry)
In words: Inhibition of recombinant human LTA4H aminopeptidase activity expressed in Escherichia coli BL21 (DE3) pLysS assessed as formation of p-NA from Ala-p-NA at 10 uM preincubated for 10 mins followed by substrate addition measured after 10 mins.

In series [10] the target is T5, Leukotriene A-4 hydrolase (Homo sapiens) (UniProt P09960).
T5 sequence (whole entry): T1 sequence (P09960 whole entry)
Description: Binding affinity to recombinant human LTA4H hydrolase assessed as change in melting temperature at 50 uM by SYPRO orange dye-based thermofluor assay

For series [11], the target named is T5, Leukotriene A-4 hydrolase (Homo sapiens). The conditions noted are these: at 10 µM.
Description: Inhibition of recombinant human LTA4H Epoxide Hydrolase expressed in Escherichia coli BL21 (DE3) pLysS at 10 uM preincubated for 10 mins followed by addition of LTA4 as substrate measured after 15 mins by reverse-phase HPLC analysis

Consider `O=C(CCCCCCC(=O)Nc1ccccc1)NO` [VORINOSTAT], for which the 50% inhibitory concentration (IC50) in series [1] was 1670 nM. The INH in [2] and in series [3] was more than 50 µM in each case. In addition, the result in the series with Mus musculus [4], in the series on Mus musculus [5] and with Mus musculus [6] was Active. Besides, the Activity result with Mus musculus [7] and in the series on Mus musculus [8] was “Dose-dependent effect” throughout. The inhibition at 10 min, 10 µM in series [9] was more than 50%. In addition, the ΔTm in [10] came out at 1.47 °C. The inhibition in [11] is more than 50%.
As to `CN(C)c1ccc(C(=O)NCCCCCCC(=O)NO)cc1`, in series [1], the IC50 worked out at 300 nM. In addition, the INH in [2] and in series [3] was more than 50 µM in each case. The result in the series on Mus musculus [4], in the series with Mus musculus [5] and with Mus musculus [6] was Active. In addition, the Activity result with Mus musculus [7] and in the series on Mus musculus [8] was “Dose-dependent effect” throughout. Besides, the inhibition at 10 min, 10 µM in series [9] (probe Ala-p-NA) is more than 50%. For the same compound, the shift in melting temperature (ΔTm) in [10] is 2.35 °C. In series [11], this compound registered an inhibition of more than 50%.
